Laboratory results reported in patent US7323484B2, “Farnesyl transferase inhibitors” (Societe de Conseils de Recherches et d'Applications …, priority 1996, dated 2008).

Tested on: MIA-PaCa pancreatic cancer cells (expressing mutated Ki-ras gene)
Test: Antiproliferative activity on human tumoral cells, WST-1 assay, MIA PaCa-2
Assay type: cell-based
Conditions: MIA PaCa-2 cells, 96 hrs treatment, 0 to 100 μM, WST-1, compared to control cells
Protocol: Antiproliferative Activity of Farnesyl-Transferase Inhibitors on Human Tumoral Cells
The assays were performed using either A-427 lung carcinomas (expressing mutated Ki-ras gene), HT-29 colon adenocarcinomas (expressing wild type ras gene), Calu-1 lung carcinomas (expressing mutated Ki-ras gene), and MIA-PaCa pancreatic cancer cells (expressing mutated Ki-ras gene). These tumoral cells were seeded on 96 well plates at day 0 and maintained at 37° C. in 5% CO2 atmosphere. At day 1, cells were treated with increased concentrations of test compounds ranging from 0 to 100 μM for 96 hrs. At the end of this period, the quantification of cell proliferation was evaluated by the calorimetric assay based on the cleavage of the tetrazolium salt WST-1 by mitochondrial dehydrogenases in viable cells leading to the formazan formation (Cell Proliferation Reagent WST-1 Kit, Boehringer Mannheim, Germany). These experiments, done in octuplicate, were repeated twice. The results, shown in Table I, depict the concentration range (μM) of test compound required to inhibit proliferation as compared to control cells in which no test compound was added.

SMILES	concentration range of test compound required to inhibit proliferation, MIA PaCa-2
CCCC[C@H]1c2nc(-c3ccccc3OC)cn2CCN1C(=O)[C@@H](N)CS [Compound 3, 7-(2-amino-1-oxo-3-thio-propyl)-8-butyl-2-(2-methoxy-phenyl)-5,6,7,8-tetrahydro-imidazo-[1,2a]-pyrazine]	12.5 to 25 µM
CCC(C)[C@H]1c2nc(-c3ccccc3OC)cn2CCN1C(=O)[C@@H](N)CSSC[C@H](N)C(=O)N1CCn2cc(-c3ccccc3OC)nc2[C@@H]1C(C)CC (stereo partly shown) [Compound 20, bis-1,1′-[7-(2-amino-1-oxo-3-thiopropyl)-2-(methoxyphenyl)-8-(1-methylpropyl)-5,6,7,8-tetrahydroimidazo[1,2a]pyrazine]disulfide]	12.5 µM
COc1ccccc1-c1cn2c(n1)[C@H](C(C)(C)C)N(C(=O)[C@@H](N)CS)CC2 [Compound 24, 7-(2-amino-1-oxo-3-thiopropyl)-8-(1,1-dimethylethyl)-2-(2-methoxyphenyl)-5,6,7,8-tetrahydroimidazo[1,2a]pyrazine]	25 to 50 µM
CCC(C)[C@H]1c2nc(-c3ccccc3OCc3ccccc3)cn2CCN1C(=O)[C@@H](N)CS (stereo partly shown) [Compound 25, 7-(2-amino-1-oxo-3-thiopropyl)-8-(1-methylpropyl)-2-(2-(phenylmethoxy)phenyl)-5,6,7,8-tetrahydroimidazo[1,2a]pyrazine]	6.25 to 12.5 µM
COc1ccccc1-c1cn2c(n1)[C@H](CC1CCCCC1)N(C(=O)[C@@H](N)CS)CC2 [Compound 26, 7-(2-amino-1-oxo-3-thiopropyl)-8-(cyclohexylmethyl)-2-(2-methoxyphenyl)-5,6,7,8-tetrahydroimidazo[1,2a]pyrazine]	6.25 to 12.5 µM
CCCC[C@H]1c2nc(-c3c(O)cccc3OC)cn2CCN1C(=O)[C@@H](N)CS [Compound 29, 7-(2-amino-1-oxo-3-thiopropyl)-8-butyl-2 (2-hydroxy-6-methoxyphenyl)-5,6,7,8-tetrahydro[1,2a]pyrazine]	6.25 to 12.5 µM
COc1ccccc1-c1cn2c(n1)[C@H](C(C)(C)C)N(C(=O)[C@@H](N)CSSC[C@H](N)C(=O)N1CCn3cc(-c4ccccc4OC)nc3[C@@H]1C(C)(C)C)CC2 [Compound 30, bis-1,1′-[7-(2-amino-1-oxo-3-thiopropyl)-8-(1,1-dimethylethyl)-2-(2-methoxyphenyl)-5,6,7,8-tetrahydroimidazo[1,2a]pyrazine]disulfide]	12.5 to 25 µM
